Results taken from patent publication US7375088B2, “Polyene polyketides, processes for their production and their use as a pharmaceutical” (Thallion Pharmaceuticals Inc., priority 2003, dated 2008).
≈ marks a conversion by molar mass, not a printed value.

Tests used:
Aspergillus fumigatus = assay: Disk diffusion assay (MEC and zone of inhibition); format: cell-based
Aspergillus flavus = assay: Disk diffusion assay (MEC and zone of inhibition); format: cell-based
HCC2998/colon carcinoma = assay: NCI in vitro antiproliferative screen (SRB, GI50); format: cell-based, human
Experimental: (§1) In Vitro antipoliferative study of Compound 2a was performed by the National Cancer Institute (National Institutes of Health, Bethesda, Md., USA) against a panel of cancer cell lines in order to determine the concentrations needed to obtain a 50% inhibition of cell proliferation (IC50). The operation of this unique screen utilizes 60 different human tumor cell lines, representing leukemia, melanoma, and cancers of the lung, colon, brain, ovary, breast prostate and kidney. Compound 2(a) was provided as a lyophilized powder with an estimated purity of 90+%. The compound was stored at −20° C. until day of use.
(§2) The human tumor cell lines of the cancer-screening panel were grown in RPMI 1640 medium containing 5% fetal bovine serum and 2 mM L-glutamine. For a typical screening experiment, cells were inoculated into 96 well microtiter plates in 100 μl at plating densities ranging from 5000 to 40,000 cells/well depending on the doubling time of individual cell lines (Table 8). After cell inoculation, the microtiter plates were incubated at 37° C., under 5% CO2, 95% air and 100% relative humidity for 24 hours prior to addition of the experimental drugs.
(§3) After 24 hours, two plates of each cell line were fixed in situ with TCA, to represent a measurement of the cell population for each cell line at the time of drug addition (Tz). Compound 2(a) was solubilized in dimethyl sulfoxide at 400-fold the desired final maximum test concentration and stored frozen prior to use. At the time of drug addition, an aliquot of frozen concentrate was thawed and diluted to twice the desired final maximum test concentration with complete medium containing 50 μg/ml gentamicin. Additional four, serial dilutions were made to provide a total of five drug concentrations plus control. Aliquots of 100 μl of these different drug dilutions were added to the appropriate microtiter wells already containing 100 μl of medium, resulting in the required final drug concentrations (2.5×10^−5 M to 2.5×10^−9 M).
(§4) Following drug addition, the plates were incubated for an additional 48 hours at 37° C., 5% CO2, 95% air, and 100% relative humidity. For adherent cells, the assay was terminated by the addition of cold TCA. Cells were fixed in situ by the gentle addition of 50 μl of cold 50% (w/v) TCA (final concentration, 10% TCA) and incubation for 60 minutes at 4° C. The supernatant was discarded, and the plates were washed five times with tap water and air-dried. Sulforhodamine B (SRB) solution (100 μl) at 0.4% (w/v) in 1% acetic acid was added to each well, and plates were incubated for 10 minutes at room temperature. After staining, unbound dye was removed by washing five times with 1% acetic acid and the plates were air-dried. Bound stain was subsequently solubilized with 10 mM trizma base, and the absorbance was read on an automated plate reader at a wavelength of 515 nm. For suspension cells, the methodology was the same except that the assay was terminated by fixing settled cells at the bottom of the wells by gently adding 50 μl of 80% TCA (final concentration, 16% TCA).
(§5) The growth inhibitory power of compound 2(a) was measured by NCl utilizing the GI50 value, rather than the classical IC50 value. The GI50 value emphasizes the correction for the cell count at time zero and, using the seven adsorbance measurements [time zero (Tz), control growth (C), and the test growth in the presence of drug at each of the five concentration levels (Ti)], GI50 is calculated as [(Ti−Tz)/(C−Tz)×100=−50. which is the drug concentration resulting in a 50% reduction in the net protein increase (as measured by SRB staining) in control cells during the drug incubation.

[1] = system: HOP92/non-small cell lung carcinoma; assay: NCI in vitro antiproliferative screen (SRB, GI50); format: cell-based, human
Experimental: as §1, §2, §3, §4, §5

SN12C/renal carcinoma = assay: NCI in vitro antiproliferative screen (SRB, GI50); format: cell-based, human
Experimental: as §1, §2, §3, §4, §5

[2] = system: Candida glabrata LSPQ 0250; assay: MIC broth microdilution assay; details: Nakaseomyces glabratus
Experimental: (§6) Test compound preparation: The test article was prepared as 100× stock solutions in DMSO, with concentrations ranging from 3.2 mg/ml to 0.0625 mg/ml (a two-fold dilution series over 10 points). The first dilution (3.2 mg/ml) was prepared by resuspending 0.5 mg of each test article in 156.25 μl of DMSO. The stock is then serially diluted by two-fold increments to obtain the desired concentration range.
(§7) Inoculum preparation: For fungal strains, the inoculum was prepared as follows. From an overnight culture in Yeast Media broth, cell density was adjusted in 0.85% saline to 0.5 McFarland. This procedure yielded a stock suspension of about 5×10^6 cells/ml. Following thorough vortexing, a working suspension was prepared by diluting the stock 1:50 in RPMI 1640, and then further diluting it 1:20 with RPMI 1640 to obtain the 2× test inoculum (about 5×10^3 cells/ml). For filamentous fungi, the inoculum was prepared as follows. […]
(§8) 50 μl of the final cell dilution (yeast, filamentous fungi or bacteria) of each indicator strain was added to each corresponding well of the microplate containing 50 μl of diluted drug or media alone. […] MIC readings were determined at 24 and 48 hrs for the Candida and Aspergillus species, and at 48 and 72 hrs for Cryptococcus neoformans. MIC readout for each indicator was determined as the lowest concentration of test compound resulting in total absence of growth.

[3] = system: Candida lusitaniae ATCC 200953; assay: MIC broth microdilution assay; details: Clavispora lusitaniae
Experimental: as §6, §7, §8

[4] = system: Aspergillus flavus ATCC 204304; assay: MIC broth microdilution assay
Experimental: as §6, §7, §8

[5] = at the MEC, 24 hours of incubation
[6] = disk diffusion, 24 hours of incubation

CC(C=CCCC=CC=CC=CC=CC(=O)NC1=C(O)CCC1=O)C(O)C(C)C(O)C=CC=CC=CC=CC=CCC(OC1OC(C)C(O)C(O)C1O)C(C)C(=O)CC(O)CC(O)CC(O)C=CCC(O)CC(O)CC(O)CC(O)C=CCC(O)CC(O)CCCN (stereo not drawn) [Compound 2(a), 56-Amino-15,17,33,35,37,41,43,45,47,51,53-undecahydroxy-14,16,30-trimethyl-31-oxo-29-(3,4,5-trihydroxy-6-methyl-tetrahydro-pyran-2-yloxy)-hexapentaconta-2,4,6,8,12,18,20,22,24,26,38,48-dodecaenoic acid (2-hydroxy-5-oxo-cyclopent-1-enyl)-amide]
antifungal activity in disk diffusion assay (Aspergillus fumigatus): active | ZOI (zone of inhibition of fungal growth calculated for each MEC) (Aspergillus fumigatus; [5]): 2.7 mm | MEC (minimum effective concentration) (Aspergillus fumigatus; [6]): 2.5 µg/mL | antifungal activity in disk diffusion assay (Aspergillus flavus): active | ZOI (zone of inhibition of fungal growth calculated for each MEC) (Aspergillus flavus; [5]): 2.7 mm | MEC (minimum effective concentration) (Aspergillus flavus; [6]): 2.5 µg/mL | GI50 level (HCC2998/colon carcinoma; HCC2998/colon carcinoma, 48 hours): nanomolar or picomolar level | GI50 (HCC2998/colon carcinoma; Homo sapiens, HCC-2998, Colon cancer, 48 h): 0.0603 µM | GI50 level ([1]; HOP92/non-small cell lung carcinoma, 48 hours): nanomolar or picomolar level | GI50 ([1]; Homo sapiens, HOP-92, Non-small cell lung cancer, 48 h): 0.0977 µM | GI50 (SN12C/renal carcinoma; Homo sapiens, SN12C, Renal cancer, 48 h): 0.138 µM | GI50 level (SN12C/renal carcinoma; SN12C/renal carcinoma, 48 hours): nanomolar or picomolar level | MIC ([2]; LSPQ0250, 24 h): 4 mg/L (≈ 3.08 µM) | MIC ([2]; LSPQ0250, 48 h): 8 mg/L (≈ 6.17 µM) | MIC ([3]; ATCC200953, 24 h): 4 mg/L (≈ 3.08 µM) | MIC ([3]; ATCC200953, 48 h): 4 mg/L (≈ 3.08 µM) | MIC ([4]; ATCC204304, 24 h): 4 mg/L (≈ 3.08 µM) | MIC ([4]; ATCC204304, 48 h): 8 mg/L (≈ 6.17 µM)
